ChEMBL document CHEMBL3997761 (Medchemcomm, 2016)
Calls of active or inactive are those of the source. The calls are words filed in the database; no cut-off is given here.

How the values were obtained:
CCRF S-180 [1] = assay: Antitumor activity against mouse S180 cells implanted in ICR mouse assessed as decrease in tumor weight at 2 umol/kg, ip administered daily for 10 days and measured 24 hrs post last dose; assay type: functional, organism-based
[2] = Induction of nanoparticle formation in ultrapure water assessed as nanoparticle size at 1 uM by transmission electron microscopic method
[3] = Induction of nanoparticle formation in ultrapure water assessed as nanoparticle size at 10 uM by transmission electron microscopic method
K562 [4] = assay: Antiproliferative activity against human K562 cells after 48 hrs by MTT assay; assay type: functional, cell-based; conditions: K562, 48 h
HT-29 = assay: Antiproliferative activity against human HT-29 cells after 48 hrs by MTT assay; assay type: functional, cell-based; conditions: HT-29, 48 h
HeLa = assay: Antiproliferative activity against human HeLa cells after 48 hrs by MTT assay; assay type: functional, cell-based
SH-SY5Y = assay: Antiproliferative activity against human SH-SY5Y cells after 48 hrs by MTT assay; assay type: functional, cell-based
K562 [5] = assay: Induction of apoptosis in human K562 cells assessed as late apoptotic cells at 10 uM after 12 hrs by Annexin V-FITC/propidium iodide staining based flow cytometry (reference value: 1.7%); assay type: functional
K562 [6] = assay: Induction of apoptosis in human K562 cells assessed as necrotic cells at 10 uM after 12 hrs by Annexin V-FITC/propidium iodide staining based flow cytometry (reference value: 0.6%); assay type: functional
K562 [7] = assay: Induction of apoptosis in human K562 cells assessed as live cells at 10 uM after 12 hrs by Annexin V-FITC/propidium iodide staining based flow cytometry (reference value: 91.6%); assay type: functional
K562 [8] = assay: Induction of apoptosis in human K562 cells assessed as early apoptotic cells at 10 uM after 12 hrs by Annexin V-FITC/propidium iodide staining based flow cytometry (reference value: 5.1%); assay type: functional
K562 [9] = assay: Induction of apoptosis in human K562 cells assessed as live cells at 10 uM after 24 hrs by Annexin V-FITC/propidium iodide staining based flow cytometry (reference value: 94.3%); assay type: functional
K562 [10] = assay: Induction of apoptosis in human K562 cells assessed as early apoptotic cells at 10 uM after 24 hrs by Annexin V-FITC/propidium iodide staining based flow cytometry (reference value: 3.2%); assay type: functional
K562 [11] = assay: Induction of apoptosis in human K562 cells assessed as late apoptotic cells at 10 uM after 24 hrs by Annexin V-FITC/propidium iodide staining based flow cytometry (reference value: 1.9%); assay type: functional
K562 [12] = assay: Induction of apoptosis in human K562 cells assessed as necrotic cells at 10 uM after 24 hrs by Annexin V-FITC/propidium iodide staining based flow cytometry (reference value: 0.6%); assay type: functional
K562 [13] = assay: Induction of apoptosis in human K562 cells at 10 uM by Annexin V-FITC/propidium iodide staining based flow cytometry; assay type: functional, cell-based; conditions: TDE = time-dependent effect
[14] = Induction of nanoparticle formation in ultrapure water assessed as nanoparticle size at 0.1 uM by transmission electron microscopic method
[15] = Induction of nanoparticle solid formation assessed as nanoparticle size at 0.1 uM by scanning electron microscopic method
[16] = Induction of nanoparticle solid formation assessed as nanoparticle size at 1 uM by scanning electron microscopic method
[17] = Induction of nanoparticle solid formation assessed as nanoparticle size at 10 uM by scanning electron microscopic method
Plasma [18] = assay: Induction of nanoparticle formation in rat plasma assessed as nanoparticle size at 0.1 uM by atomic force microscopy; assay type: cell-free
Plasma [19] = assay: Induction of nanoparticle formation in rat plasma assessed as nanoparticle size at 1 uM by atomic force microscopy; assay type: cell-free
Plasma [20] = assay: Induction of nanoparticle formation in rat plasma assessed as nanoparticle size at 10 uM by atomic force microscopy; assay type: cell-free
HCT-8 = assay: Antiproliferative activity against human HCT8 cells after 48 hrs by MTT assay; assay type: functional, cell-based; conditions: HCT-8, 48 h
HL-60 = assay: Antiproliferative activity against human HL60 cells after 48 hrs by MTT assay; assay type: functional, cell-based; conditions: HL-60, 48 h
A549 = assay: Antiproliferative activity against human A549 cells after 48 hrs by MTT assay; assay type: functional, cell-based; conditions: A549, 48 h
Bos taurus [21] = species: Bos taurus; assay: Binding affinity to calf thymus DNA assessed as fluorescence quenching by measuring bathochromic shift by spectrofluorometric method
[22] = Drug uptake in nucleus of human HeLa cells at 40 uM by fluorescence microscopy; assay type: ADME, cell-based; conditions: TDE = time-dependent effect
[23] = Drug uptake in nucleus of human SH-SY5Y cells at 40 uM by fluorescence microscopy; assay type: ADME; conditions: TDE = time-dependent effect
CCRF S-180 [24] = assay: Antitumor activity against mouse S180 cells implanted in ICR mouse assessed as decrease in tumor weight administered intraperitoneally daily for 10 days and measured after 24 hrs last dose; assay type: functional
Mus musculus [25] = assay: Downregulation of P-selectin expression in ip dosed ICR mouse serum implanted with mouse S180 cells by ELISA; assay type: functional, organism-based
Mus musculus [26] = assay: Downregulation of TNFalpha levels in ip dose ICR mouse serum implanted with mouse S180 cells by ELISA; assay type: functional, organism-based
Mus musculus [27] = assay: Antiinflammatory activity in ICR mouse assessed as inhibition of xylene-induced ear edema at 1 umol/kg, po pretreated for 30 mins followed by xylene administration measured after 2 hrs relative to control; assay type: functional, organism-based
Mus musculus [28] = assay: Antiinflammatory activity in xylene induced ICR mouse ear edema model assessed as decrease in serum TNFalpha level at 1 umol/kg, po pretreated for 30 mins followed by xylene administration measured after 2 hrs by ELISA; assay type: functional, organism-based
Mus musculus [29] = assay: Antiinflammatory activity in xylene induced ICR mouse ear edema model assessed as decrease in serum IL2 level at 1 umol/kg, po pretreated for 30 mins followed by xylene administration measured after 2 hrs by ELISA; assay type: functional, organism-based
Mus musculus [30] = assay: Potency index, ratio of compound effect to aspirin effect for antiinflammatory activity in ICR mouse assessed as inhibition of xylene-induced ear edema; assay type: functional
[31] = Induction of nanoparticle formation in ultrapure water by transmission electron microscopic method
[32] = Induction of nanoparticle solid formation by scanning electron microscopic method
Plasma [33] = assay: Induction of nanoparticle formation in rat plasma by atomic force microscopy; assay type: cell-free
[34] = Induction of nanoparticle formation in ultrapure water assessed as Farady-Tyndall effect at 1 uM under 650 nanometer laser beam irradiation
[35] = Induction of nanoparticle formation in ultrapure water assessed as Farady-Tyndall effect at 1 uM
[36] = Induction of nanoparticle formation in ultrapure water assessed as nanoparticle size at 1 uM under 650 nanometer laser beam irradiation
[37] = Induction of nanoparticle formation in ultrapure water assessed as zeta potential at 1 uM under 650 nanometer laser beam irradiation
Bos taurus [38] = species: Bos taurus; assay: Binding affinity to calf thymus DNA by UV spectrum analysis
Bos taurus [39] = species: Bos taurus; assay: Binding affinity to calf thymus DNA by CD spectrum analysis
[40] = Drug uptake in nucleus of human HT-29 cells at 40 uM by fluorescence microscopy; assay type: ADME; conditions: TDE = time-dependent effect
CCRF S-180 [41] = assay: Potency index, ratio of compound effect to doxorubicin effect for antitumor activity against mouse S180 cells implanted in ICR mouse assessed as decrease in tumor weight; assay type: functional
CCRF S-180 [42] = assay: Antitumor activity against mouse S180 cells implanted in ICR mouse assessed as decrease in tumor size at 0.01 to 1 umol/kg, ip administered daily for 10 days and measured 24 hrs post last dose; assay type: functional, organism-based
Mus musculus [43] = assay: Antiinflammatory activity in ICR mouse assessed as inhibition of xylene-induced ear edema at 16.7 umol/kg, po pretreated for 30 mins followed by xylene administration measured after 2 hrs relative to control; assay type: functional, organism-based

For COc1cccc2c1C(=O)c1c(O)c3c(c(O)c1C2=O)C[C@@](O)(C(=O)CO)C[C@@H]3O[C@H]1C[C@H](N)[C@H](O)[C@H](C)O1, the Activity (CCRF S-180 [1]) was “Active”.

Work on N=C(NCCC[C@H](NC(=O)c1cc2c(cn1)[nH]c1ccccc12)C(=O)OCc1ccccc1)N[N+](=O)[O-] yielded an Activity [2] of 10.8 to 116 nm, an Activity [3] of 43.9 to 176 nm and an IC50 (K562 [4]) of 15.3 to 74.1 µM. It also gave an IC50 (HT-29) of 15.3 to 74.1 µM, an IC50 (HeLa) of 15.3 to 74.1 µM and an IC50 (SH-SY5Y) of 15.3 to 74.1 µM. For the same compound, the Activity (K562 [5]) was 9%, the Activity (K562 [6]) was 3.5% and the Activity (K562 [7]) was 73%. For the same compound, the Activity (K562 [8]) was 14.5%, the Activity (K562 [9]) was 25.5% and the Activity (K562 [10]) was 60.7%. For the same compound, the Activity (K562 [11]) was 12.4%, the Activity (K562 [12]) was 1.4% and the Activity (K562 [13]) was “Tde”. The Activity [14] was 8 to 72.7 nm, the Activity [15] was 28.6 to 88.9 nm and the Activity [16] was 33.3 to 100 nm. For the same compound, the Activity [17] was 44.4 to 111 nm, the Activity (Plasma [18]) was 68.6 to 78.4 nm and the Activity (Plasma [19]) was 78.5 to 98 nm. It also gave an Activity (Plasma [20]) of 102 to 109 nm, an IC50 (HCT-8) of 15.3 to 74.1 µM and an IC50 (HL-60) of 15.3 to 74.1 µM. The IC50 (A549) was 15.3 to 74.1 µM, the Activity (Bos taurus [21]) was “Dose-dependent effect” and the Drug uptake [22] was “Tde”. The Drug uptake [23] was “Tde”, the Activity (CCRF S-180 [24]) was “Dose-dependent effect” and the MED (CCRF S-180 [24]) was 0.01 µmol/kg. For the same compound, the Activity (Mus musculus [25]) was “Dose-dependent effect”, the Activity (Mus musculus [26]) was “Dose-dependent effect” and the inhibition (Mus musculus [27]) was “Active”. The Activity (Mus musculus [28]) was “Active”, the Activity (Mus musculus [29]) was “Active” and the Ratio (Mus musculus [30]) was 16.7. The Activity [31] was “Dose-dependent effect”, the Activity [32] was “Dose-dependent effect” and the Activity (Plasma [33]) was “Dose-dependent effect”. The Activity [34] was “Active”, the Activity [35] was “inactive” and the Activity [36] was 165 nm. The Activity [37] was -14.2 mV, the Activity (Bos taurus [38]) was “Dose-dependent effect” and the Activity (Bos taurus [39]) was “Dose-dependent effect”. For the same compound, the Drug uptake [40] was “Tde”, the Ratio (CCRF S-180 [41]) was 2 and the Activity (CCRF S-180 [42]) was “Active”.

For CC(=O)Oc1ccccc1C(=O)O, the inhibition (Mus musculus [43]) was “Active”.
